Where two headings read alike, the source gives them in different places. Square brackets hold non-standard residues; d marks the D form. Peptide text beside a SMILES is read from it. Nspe(4-Br) = C[C@H](NCC(=O)O)c1ccc(Br)cc1; Nspe = C[C@H](NCC(=O)O)c1ccccc1; Nlys = NCCCCNCC(=O)O
Experiments:
C. auris CBS12373 = test: Broth microdilution MIC; type: cell-based, Candida auris
[1] = tested on: ESKAPEE pathogens (all bacteria); test: Geometric mean MIC, therapeutic index and selectivity ratio, all bacteria; type: cell-based; settings: for Geometric mean MIC, all bacteria: across the 23 ESKAPEE strains
Method: (§1) Briefly, bacteria were suspended in cation-adjusted Mueller–Hinton broth (CAMHB; Oxoid, UK) for antibiotics, or MHB (Oxoid, UK) for peptidomimetics to obtain 5 × 10^5 colony forming unit (CFU) ml^−1. […] Positive controls contained only microbes, and blanks contained only media. Microbial suspensions (100 µl) were added to wells, plates wrapped, and incubated at 37°C, 120 rpm for 16–20 h. After incubation, suspensions were removed, log10 diluted, and plated on Trypticase Soya Agar with phosphatidylcholine and Tween 80 to determine minimum bactericidal or fungicidal concentration (MBC or MFC). […] Geometric mean MIC of the peptoids were calculated to evaluate the broad overview of antimicrobial activity across the pathogens.
(§2) The therapeutic indices (TIs) of the compounds were calculated with the use of following formula: […]

Enterobacteriaceae = test: Geometric mean MIC, therapeutic index and selectivity ratio, Enterobacteriaceae; type: cell-based; settings: Enterobacteriaceae (E. coli, K. pneumoniae, and E. aerogenes)
Method: as §1, §2

MBL-producing bacteria = test: Geometric mean MIC, therapeutic index and selectivity ratio, MBL-producing bacteria; type: cell-based
Method: as §1
The test was performed as per the manufacturer’s instructions. Briefly, the strips were applied to a lawn culture of bacteria maintained at 1.5 × 10^8 CFU ml^−1 on Mueller–Hinton agar (Oxoid, UK) and incubated for 20 h at 37°C.
as §2

C. auris strains = settings: two C. auris strains
Method: as §1, §2

[2] = tested on: horse red blood cells (RBCs); test: Haemolysis assay; type: cell-based
Method: The haemolytic activity of the peptidomimetics was performed to determine mammalian cell safety. This assay used horse red blood cells (RBCs) (Sigma–Aldrich, USA) as described previously (Willcox et al. [2008], Chongsiriwatana et al. [2017], Yasir et al. [2019b]). RBCs were washed three times with PBS at 470 g for 5 min. Peptoids (0.5–250 μg ml^−1) were prepared in PBS and added to washed RBCs, then incubated at 37°C for 4 h. After incubation, cells were centrifuged at 1057 g for 10 min, and the supernatant’s OD at 540 nm was measured for lysis. PBS-only RBCs served as the negative control (no haemolysis), and Milli-Q water-treated RBCs as the positive control (100% lysis). Percent haemolysis was calculated as: (ODT − ODNC)/(ODPC − ODNC) × 100, where ODT, ODNC, and ODPC are the absorbances of the test, negative, and positive controls, respectively. This experiment was performed in triplicate.

A. baumannii 006 = tested on: A. baumannii 006
In short: (§3)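 Suspensions of 5 × 10^5 CFU ml^−1 were incubated with compounds for 16–20 h at 37°C and 120 rpm, the medium being MHB for peptidomimetics and cation-adjusted MHB for antibiotics. Wells were afterwards log10 diluted and plated to obtain MBC.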

A. baumannii 008 = tested on: A. baumannii 008
In short: as §3

A. baumannii ATCC 19 606 = tested on: A. baumannii ATCC 19 606
In short: as §3

E. coli 0010 = tested on: E. coli 0010
In short: as §3

E. coli 005 = tested on: E. coli 005
In short: as §3

En. cloacae 001 = tested on: En. cloacae 001
In short: as §3

En. cloacae 005 = tested on: En. cloacae 005
In short: as §3

K. pneumoniae JIE2709 = tested on: K. pneumoniae JIE2709
In short: as §3

K. pneumoniae JIE2713 = tested on: K. pneumoniae JIE2713
In short: as §3

K. pneumoniae JIE4212 = tested on: K. pneumoniae JIE4212
In short: as §3

P. aeruginosa 216 = tested on: P. aeruginosa 216
In short: as §3

P. aeruginosa AR-1270 = tested on: P. aeruginosa AR-1270
In short: as §3

S. aureus 105 = tested on: S. aureus 105
In short: as §3

S. aureus 38 = tested on: S. aureus 38
In short: as §3

[3] = CBS 12 373, RPMI 1640 with MOPS, 5 × 10^3 CFU ml^−1, ≥90% reduction (≥50% for fluconazole)
[4] = A. baumannii 006, MHB (melimine/Mel4 with 0.2% BSA, 0.01% acetic acid), mean MIC
[5] = A. baumannii ATCC 19 606, MHB (melimine/Mel4 with 0.2% BSA, 0.01% acetic acid), mean MIC
[6] = E. coli 0010, MHB (melimine/Mel4 with 0.2% BSA, 0.01% acetic acid), mean MIC
[7] = E. coli 005, MHB (melimine/Mel4 with 0.2% BSA, 0.01% acetic acid), mean MIC
[8] = En. cloacae 001, MHB (melimine/Mel4 with 0.2% BSA, 0.01% acetic acid), mean MIC
[9] = K. pneumoniae JIE2709, MHB (melimine/Mel4 with 0.2% BSA, 0.01% acetic acid), mean MIC
[10] = K. pneumoniae JIE2713, MHB (melimine/Mel4 with 0.2% BSA, 0.01% acetic acid), mean MIC
[11] = K. pneumoniae JIE4212, MHB (melimine/Mel4 with 0.2% BSA, 0.01% acetic acid), mean MIC
[12] = P. aeruginosa 216, MHB (melimine/Mel4 with 0.2% BSA, 0.01% acetic acid), mean MIC
[13] = P. aeruginosa AR-1270, MHB (melimine/Mel4 with 0.2% BSA, 0.01% acetic acid), mean MIC
[14] = S. aureus 105, MHB (melimine/Mel4 with 0.2% BSA, 0.01% acetic acid), mean MIC
[15] = S. aureus 38, MHB (melimine/Mel4 with 0.2% BSA, 0.01% acetic acid), mean MIC

Row | SMILES | MIC against C. auris (C. auris CBS12373; [3]) [µg/mL] | MIC against C. auris (C. auris CBS12373; CBS12373) [µM] | Geometric mean MIC, all bacteria [1] [µg/mL] | Geometric mean MIC, all bacteria ([1]; value in brackets) [µM] | Geometric mean MICE (Enterobacteriaceae) [µg/mL] | Geometric mean MICMBL (MBL-producing bacteria) [µg/mL] | Geometric mean MICCA (C. auris strains) [µg/mL] | HD10 (10% haemolytic dose) [2] [µmol/L] | HD50 (50% haemolytic dose) [2] [µmol/L] | HD10 (10% haemolytic dose) ([2]; red cells of horse, 4 h) [µg/mL] | HD50 (50% haemolytic dose) ([2]; red cells of horse, 4 h) [µg/mL] | MIC of peptidomimetics (A. baumannii 006; 006) [µM] | MIC of peptidomimetics (A. baumannii 006; [4]) [µg/mL] | MIC of peptidomimetics (A. baumannii 008; 008) | MIC of peptidomimetics (A. baumannii ATCC 19 606; [5]) [µg/mL] | MIC of peptidomimetics (A. baumannii ATCC 19 606; ATCC 19) [µM] | MIC of peptidomimetics (E. coli 0010; 0010) [µM] | MIC of peptidomimetics (E. coli 0010; [6]) [µg/mL] | MIC of peptidomimetics (E. coli 005; 005) [µM] | MIC of peptidomimetics (E. coli 005; [7]) [µg/mL] | other results
1 | C[C@@H](c1ccc(Br)cc1)N(CC(=O)N(CCCCN)CC(=O)N(CC(=O)N(CC(=O)N(CCCCN)CC(N)=O)[C@@H](C)c1ccc(Br)cc1)[C@@H](C)c1ccccc1)C(=O)CN(C(=O)CNCCCCN)[C@@H](C)c1ccccc1 [TM12] (H-[Nlys][Nspe][Nspe(4-Br)][Nlys][Nspe][Nspe(4-Br)][Nlys]-NH2) | 3.9 | 3.2 | 31.2 | 26.0 | 47.4 | 62.5 | 15.6 | 66.4 | 212.6 | 80 | > 256 | 103.8 | 125 | 51.8 µM | 125 | 103.8 | 103.8 | 125 | 103.8 | 125 | Fold increase in geometric mean MIC relative to TM4 ([1]; bacteria): 3 fold; MIC of peptidomimetics (A. baumannii 008; A. baumannii 008, MHB (melimine/Mel4 with 0.2% BSA, 0.01% acetic acid), mean MIC): 62.5 µg/mL; MIC of peptidomimetics (En. cloacae 001): 13.0 µM; MIC of peptidomimetics (En. cloacae 001; [8]): 15.6 µg/mL; MIC of peptidomimetics (En. cloacae 005): 13.0 µM; MIC of peptidomimetics (En. cloacae 005; En. cloacae 005, MHB (melimine/Mel4 with 0.2% BSA, 0.01% acetic acid), mean MIC): 15.6 µg/mL; MIC of peptidomimetics (K. pneumoniae JIE2709; JIE2709): 103.8 µM; MIC of peptidomimetics (K. pneumoniae JIE2709; [9]): 125 µg/mL; MIC of peptidomimetics (K. pneumoniae JIE2713; JIE2713): 103.8 µM; MIC of peptidomimetics (K. pneumoniae JIE2713; [10]): 125 µg/mL; MIC of peptidomimetics (K. pneumoniae JIE4212; JIE4212): 103.8 µM; MIC of peptidomimetics (K. pneumoniae JIE4212; [11]): 125 µg/mL; MIC of peptidomimetics (P. aeruginosa 216; 216): 25.9 µM; MIC of peptidomimetics (P. aeruginosa 216; [12]): 31.3 µg/mL; MIC of peptidomimetics (P. aeruginosa AR-1270; AR-1270): 103.8 µM; MIC of peptidomimetics (P. aeruginosa AR-1270; [13]): 125 µg/mL; MIC of peptidomimetics (S. aureus 105; 105): 6.5 µM; MIC of peptidomimetics (S. aureus 105; [14]): 7.8 µg/mL; MIC of peptidomimetics (S. aureus 38; 38): 6.5 µM; MIC of peptidomimetics (S. aureus 38; [15]): 7.8 µg/mL
2 | C[C@@H](c1ccc(Br)cc1)N(CC(N)=O)C(=O)CN(C(=O)CN(CCCCN)C(=O)CN(C(=O)CN(C(=O)CNCCCCN)[C@@H](C)c1ccccc1)[C@@H](C)c1ccc(Br)cc1)[C@@H](C)c1ccccc1 [TM2] (H-[Nlys][Nspe][Nspe(4-Br)][Nlys][Nspe][Nspe(4-Br)]-NH2) | 3.9 | 3.6 | 26.1 | 24.2 | 58.3 | 28.7 | 11.1 | 18.6 | 59.5 | 20 | 64 | 7.2 | 7.8 | 15.6 µg/mL | 31.3 | 29.0 | 58.1 | 62.5 | 116.2 | 125 | MIC of peptidomimetics (En. cloacae 001): 29.0 µM; MIC of peptidomimetics (En. cloacae 001; [8]): 31.3 µg/mL; MIC of peptidomimetics (En. cloacae 005): 15.6 µg/mL; MIC of peptidomimetics (K. pneumoniae JIE2709; JIE2709): 116.2 µM; MIC of peptidomimetics (K. pneumoniae JIE2709; [9]): 125 µg/mL; MIC of peptidomimetics (K. pneumoniae JIE2713; JIE2713): 116.2 µM; MIC of peptidomimetics (K. pneumoniae JIE2713; [10]): 125 µg/mL; MIC of peptidomimetics (K. pneumoniae JIE4212; JIE4212): 58.1 µM; MIC of peptidomimetics (K. pneumoniae JIE4212; [11]): 62.5 µg/mL; MIC of peptidomimetics (P. aeruginosa 216; 216): 14.5 µM; MIC of peptidomimetics (P. aeruginosa 216; [12]): 15.6 µg/mL; MIC of peptidomimetics (P. aeruginosa AR-1270; AR-1270): 29.0 µM; MIC of peptidomimetics (P. aeruginosa AR-1270; [13]): 31.3 µg/mL; MIC of peptidomimetics (S. aureus 105; 105): 7.2 µM; MIC of peptidomimetics (S. aureus 105; [14]): 7.8 µg/mL; MIC of peptidomimetics (S. aureus 38; 38): 7.2 µM; MIC of peptidomimetics (S. aureus 38; [15]): 7.8 µg/mL
